Assay results reported in US4832875A, “Vitamin D3 derivative” (Taisho Pharmaceutical Co., Ltd., priority 1985, dated 1989).

Columns and labels:
[1] = system: calcium level in serum in vitamin D-deficient rats; assay: activity of increasing calcium level in serum in vitamin D-deficient rats (oral); format: in vivo, Wistar rats (male); conditions: for Percent increase in serum Ca level (control 100%) / Calcium in the serum: po, once a day over 3 days; for Calcium in the serum: control (ethanol) 8.60
From the text: To confirm it in an in vivo (animal) test, however, its action of increasing the blood calcium level in vitamin D-deficient rats was examined.
Wistar rats (male, three weeks old) purchased from Japan Charles River Co. were fed 3 to 4 weeks with a vitamin D-deficient diet containing calcium (0.02%) and phosphorus (0.99%) to prepare vitamin D-deficient rats. The compound of this invention or 1,25-dihydroxy-26,27-dimethylvitamin D3 was orally administered to these animals once a day over 3 days. On the fourth day, blood was drawn from the animals, and calcium in the serum was measured by atomic absorptiometry.
As soon as the administration began, the feed was changed to one which was vitamin D-deficient but contained calcium in a normal amount (0.56%).

[2] = system: calcium level in the serum; conditions: as shown in Japanese Laid-Open Patent Publication No. 44860/1986; cited from earlier work
[3] = system: calcium level in the serum in vitamin D-deficient low-calcium rats; assay: effect of inhibiting dissolution of calcium from bones: calcium level in serum in vitamin D-deficient low-calcium rats (intravenous); format: in vivo, Wistar rats (male); conditions: 500 P moles/100 g body weight, one intravenous administration, next day
From the text: Vitamin D has both an action of calcium deposition on bones and an action of liberating calcium from the bones, and promotes bone formation when the balance between these actions is shifted toward the former. Accordingly, a vitamin D derivative which inhibits dissolution of calcium from bones can be expected to have a very strong bone-forming action. In the present test, calcium in the feed was limited to a low level, and under conditions in which no calcium absorption from the intestinal tract occurred, the activity to increase the calcium level in the serum was examined. This activity is considered to reflect calcium dissolution from the bones.
The following test was conducted in accordance with the method of C. Kaneko et al. [C. Kaneko, S. Yamada, A. Sugimoto, M. Katuta, and S. Sasaki: Steroids, 23, 75 (1974)].
Three week old Wistar rats (male) were purchased from Japan Charles River Co., and were fed for 19 days with a feed being deficient in vitamin D and containing low calcium (0.02%) to prepare vitamin D-deficient hypocalcemia rats. An ethanol solution of an assay compound was intravenously administered once to the rats. On the next day, blood was drawn from the animals, and the calcium level in the serum was measured by atomic absorptiometry (using a double beam atomic absorption photometer made by Shimazu Seisakusho; Model AA-650).

[4] = molecular target: T1, 1,25-dihydroxyvitamin D3 receptor in the intestines of chicken embryo (Gallus gallus, UniProt O42392); assay: receptor binding ability (in vitro), 1,25-dihydroxyvitamin D3 receptor, charcoal method
T1 sequence (O42392 1-451): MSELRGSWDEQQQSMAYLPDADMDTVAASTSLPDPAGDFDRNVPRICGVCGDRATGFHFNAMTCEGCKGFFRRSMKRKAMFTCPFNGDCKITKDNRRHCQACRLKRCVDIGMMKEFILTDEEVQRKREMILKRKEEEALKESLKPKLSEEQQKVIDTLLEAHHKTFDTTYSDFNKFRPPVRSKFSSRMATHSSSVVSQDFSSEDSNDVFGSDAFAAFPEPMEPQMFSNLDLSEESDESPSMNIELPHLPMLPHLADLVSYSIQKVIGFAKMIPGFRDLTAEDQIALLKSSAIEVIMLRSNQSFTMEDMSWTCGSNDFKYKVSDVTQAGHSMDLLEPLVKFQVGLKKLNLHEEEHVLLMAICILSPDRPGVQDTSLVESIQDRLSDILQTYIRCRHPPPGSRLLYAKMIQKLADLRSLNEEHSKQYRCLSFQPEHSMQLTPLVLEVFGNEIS
Method: The mixture was incubated at 0° C. for 3 hours.
The free assay compound and the assay compound bound to the receptor were separated by the charcoal method.

IC50 [4] [µM] | SMILES | Percent increase in serum Ca level (control 100%) ([1]; 600 P moles/rat) [%] | Calcium in the serum ([1]; 600 P moles/rat) [mg/dL] | Percent increase in serum Ca level (control 100%) ([1]; 1,200 P moles/rat) [%] | Calcium in the serum ([1]; 1,200 P moles/rat) [mg/dL] | action of increasing the calcium level in the serum compared with 1α-hydroxyvitamin D3 or 1,25-dihydroxyvitamin D3 (in words) [2] | activity to increase the calcium level in the serum compared with 1,25-dihydroxyvitamin D3 (in words) ([1]; inferred via 1,25-dihydroxy-26,27-dimethylvitamin D3 comparator) | action of increasing the calcium level in the serum (in words) ([1]; vitamin D-deficient rats, oral) | Percent increase in serum Ca level (control 100%) ([3]; control 100%) [%] | Calcium in the serum ([3]; control (ethanol) 4.47, * significant at P <0.05 vs control) [mg/dL]
 | C=C1/C(=C\C=C2/CCC[C@]3(C)[C@@H]([C@H](C)CCCC(O)(CC)CC)CC[C@@H]23)C[C@@H](O)C[C@@H]1O [1,25-Dihydroxy-26,27-dimethyl-vitamin D3, 1,25-dihydroxy-26,27-dimethylvitamin D3, reference compound] | 105 | 9.00 | 112 | 9.60 | stronger action of increasing the calcium level in the serum than 1α-hydroxyvitamin D3 or 1,25-dihydroxyvitamin D3 |  |  |  | 
0.05 | C=C1/C(=C\C=C2/CCC[C@]3(C)[C@@H]([C@H](C)CCCC(F)(F)C(C)(C)O)CC[C@@H]23)C[C@@H](O)C[C@@H]1O [Compound of the invention, 1α,25-dihydroxy-24a,24a-difluoro-24-homovitamin D3] | 114 | 9.80 | 119 | 10.20 |  | stronger than that of 1,25-dihydroxyvitamin D3 | shows an action of increasing the calcium level in the serum | 94.2 | 4.21
